Source: ChEMBL document CHEMBL1201862, “PubChem BioAssay data set” (2004)
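A five-concentration, 48-hour dose response in 96-well plates underlies each endpoint, interpolated linearly between surrounding concentrations. The concentration for 50% growth inhibition is given as GI50.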 The source made the active and inactive calls. Rule as the data show it: active = GI50 up to about 1.1 µM and inactive = higher.

Columns and labels:
Assay in all cases: NCI anticancer screen, dose series, 48 h
[1] = test system: OVCAR-5
[2] = test system: A498
[3] = test system: Malme-3M
[4] = test system: SN12C
[5] = test system: SNB-19
[6] = test system: K562
[7] = test system: NCI-H522
[8] = test system: UO-31
[9] = test system: HOP-62
[10] = test system: SF-539
[11] = test system: U-251
[12] = test system: SK-MEL-5
[13] = test system: CAKI-1
[14] = test system: COLO 205
[15] = test system: HOP-92
[16] = test system: OVCAR-3
[17] = test system: A549
[18] = test system: CCRF-CEM
[19] = test system: M14
[20] = test system: HCC 2998

Structure (SMILES)	GI50 [1]	GI50 [2]	GI50 [3]	GI50 [4]	GI50 [5]	GI50 [6]	GI50 [7]	GI50 [8]	GI50 [9]	GI50 [10]	GI50 [11]	GI50 [12]	GI50 [13]	GI50 [14]	GI50 [15]	GI50 [16]	GI50 [17]	GI50 [18]	GI50 [19]	GI50 [20]
Cc1n(CC(=O)c2ccc([N+](=O)[O-])cc2)c2c([n+]1CC(C)C)C(=O)c1ccccc1C2=O	< 0.0318 µM (active)	0.668 µM (active)	< 0.01 µM (active)	< 0.01 µM (active)	< 0.015 µM (active)	< 0.01 µM (active)	< 0.01 µM (active)	16.1 µM (inactive)	0.29 µM (active)	< 0.01 µM (active)	< 0.01 µM (active)	< 0.0106 µM (active)	0.121 µM (active)	< 0.01 µM (active)	< 0.0226 µM (active)	< 0.0424 µM (active)	< 0.0318 µM (active)	< 0.0172 µM (active)		
O=C1C(Cl)N(c2ccc([N+](=O)[O-])cc2)C1c1c[nH]c2ccccc12 (stereo not given)	> 100 µM (inactive)		42.1 µM (inactive)	> 100 µM (inactive)	> 100 µM (inactive)	55 µM (inactive)	56.8 µM (inactive)	38.3 µM (inactive)	> 100 µM (inactive)	33 µM (inactive)	62.5 µM (inactive)	> 100 µM (inactive)		> 100 µM (inactive)	83 µM (inactive)	47.8 µM (inactive)	> 100 µM (inactive)	9.25 µM (inactive)	64.7 µM (inactive)	
c1ccc([P+](Cc2csnn2)(c2ccccc2)c2ccccc2)cc1	> 100 µM (inactive)	> 100 µM (inactive)	> 100 µM (inactive)	> 100 µM (inactive)	> 100 µM (inactive)		> 100 µM (inactive)	> 100 µM (inactive)	> 100 µM (inactive)	> 100 µM (inactive)	> 100 µM (inactive)	> 100 µM (inactive)	> 100 µM (inactive)	> 100 µM (inactive)	80 µM (inactive)	> 100 µM (inactive)	> 100 µM (inactive)	> 100 µM (inactive)	> 100 µM (inactive)	> 100 µM (inactive)
CCCCSCCC(N)P(=O)(O)O (stereo not given)	> 100 µM (inactive)			> 100 µM (inactive)	> 100 µM (inactive)	> 100 µM (inactive)	> 100 µM (inactive)	> 100 µM (inactive)	> 100 µM (inactive)		> 100 µM (inactive)	> 100 µM (inactive)	> 100 µM (inactive)	> 100 µM (inactive)	> 100 µM (inactive)	> 100 µM (inactive)	> 100 µM (inactive)	> 100 µM (inactive)	> 100 µM (inactive)	> 100 µM (inactive)
Cc1nc2c(n1C)C(=O)c1nc(CBr)[nH]c(=O)c1C2=O		> 100 µM (inactive)		> 100 µM (inactive)	> 100 µM (inactive)	> 100 µM (inactive)	> 100 µM (inactive)	> 100 µM (inactive)		> 100 µM (inactive)	> 100 µM (inactive)	20.3 µM (inactive)		51.5 µM (inactive)	> 100 µM (inactive)		> 100 µM (inactive)	> 100 µM (inactive)	35.9 µM (inactive)	
Cc1ccc(N2Cc3c(ccc4ccccc34)OP2(=S)N2CCCC2)cc1 (stereo not given)	> 100 µM (inactive)	> 56.5 µM (inactive)	> 100 µM (inactive)	> 100 µM (inactive)	> 100 µM (inactive)	> 89.9 µM (inactive)	> 100 µM (inactive)	85.7 µM (inactive)	> 100 µM (inactive)	> 100 µM (inactive)	> 100 µM (inactive)	> 100 µM (inactive)	> 100 µM (inactive)	> 100 µM (inactive)	> 100 µM (inactive)	> 40.1 µM (inactive)	> 100 µM (inactive)	> 100 µM (inactive)		> 100 µM (inactive)
O=NN(CC1(O)OCC(O)C(O)C1O)C(Cc1c[nH]c2ccccc12)C(=O)O (stereo not given)	> 100 µM (inactive)	> 100 µM (inactive)	> 100 µM (inactive)			> 100 µM (inactive)	> 100 µM (inactive)	> 10 µM (inactive)	> 100 µM (inactive)	> 100 µM (inactive)	> 100 µM (inactive)	> 100 µM (inactive)		> 100 µM (inactive)	> 100 µM (inactive)	> 100 µM (inactive)	> 100 µM (inactive)	> 100 µM (inactive)	> 100 µM (inactive)	> 100 µM (inactive)
COc1cccc(NC(=O)CC(=O)NN2C(=O)/C(=C/c3ccc(N(CCC#N)CCC#N)cc3)N=C2c2cc([N+](=O)[O-])ccc2Cl)c1	25.5 µM (inactive)		32.7 µM (inactive)	> 100 µM (inactive)	> 100 µM (inactive)	44.3 µM (inactive)	43.9 µM (inactive)	> 100 µM (inactive)	> 100 µM (inactive)	> 100 µM (inactive)	75.3 µM (inactive)	42.2 µM (inactive)	> 100 µM (inactive)	> 100 µM (inactive)	> 100 µM (inactive)	> 100 µM (inactive)	> 100 µM (inactive)	0.499 µM (active)	> 100 µM (inactive)	96.8 µM (inactive)
CC(=O)Oc1ccccc1[C@H]1CC(=O)C[C@H](c2ccccc2OC(C)=O)C12C(=O)c1ccccc1C2=O	44.2 µM (inactive)	25.6 µM (inactive)	40 µM (inactive)	37.4 µM (inactive)	60.4 µM (inactive)	12.7 µM (inactive)	26.7 µM (inactive)	36.3 µM (inactive)	30.4 µM (inactive)		38.9 µM (inactive)	22.4 µM (inactive)	20.9 µM (inactive)	22.3 µM (inactive)	47.9 µM (inactive)	22.1 µM (inactive)		10.9 µM (inactive)	19.9 µM (inactive)	25.5 µM (inactive)
C=C1C2=C(CCCC2)C(=O)OC12CCCCC2	79.8 µM (inactive)		51.3 µM (inactive)	> 100 µM (inactive)	> 100 µM (inactive)	45.2 µM (inactive)	35.5 µM (inactive)	35.1 µM (inactive)	> 100 µM (inactive)	> 100 µM (inactive)	73.6 µM (inactive)	38 µM (inactive)		51.2 µM (inactive)	19.5 µM (inactive)	43.5 µM (inactive)	49.3 µM (inactive)	51.4 µM (inactive)	> 100 µM (inactive)	> 100 µM (inactive)
O=C(OCCO)C1CC2CC1C1(C2)OCCO1 (stereo not given)	> 100 µM (inactive)	> 100 µM (inactive)	> 100 µM (inactive)	> 100 µM (inactive)	> 100 µM (inactive)	> 100 µM (inactive)	> 100 µM (inactive)	> 100 µM (inactive)	> 100 µM (inactive)	> 100 µM (inactive)	> 100 µM (inactive)	> 100 µM (inactive)	> 100 µM (inactive)	> 100 µM (inactive)	> 100 µM (inactive)	> 100 µM (inactive)	> 100 µM (inactive)	> 100 µM (inactive)	> 100 µM (inactive)	
COc1ccc(CCn2nccc2C)cc1	> 100 µM (inactive)		> 100 µM (inactive)	80.9 µM (inactive)	> 100 µM (inactive)	> 100 µM (inactive)		59.6 µM (inactive)	> 100 µM (inactive)	> 100 µM (inactive)	> 100 µM (inactive)	> 100 µM (inactive)	> 100 µM (inactive)	> 100 µM (inactive)		> 100 µM (inactive)	> 100 µM (inactive)	> 100 µM (inactive)	> 100 µM (inactive)	
CC1(Cl)CC2C(CC1Sc1nnnn1-c1ccccc1)C2(C)C (stereo not given)	> 100 µM (inactive)			> 100 µM (inactive)	83.2 µM (inactive)	32.4 µM (inactive)		37.5 µM (inactive)	> 100 µM (inactive)	> 100 µM (inactive)		58.2 µM (inactive)		83.8 µM (inactive)	58.6 µM (inactive)	38.7 µM (inactive)	67.1 µM (inactive)	36.7 µM (inactive)	> 100 µM (inactive)	> 100 µM (inactive)
Cc1ccc(SSCCCCCS(=O)O)cc1	> 100 µM (inactive)	19 µM (inactive)	18.3 µM (inactive)	20.6 µM (inactive)	35.4 µM (inactive)	21.2 µM (inactive)	14.6 µM (inactive)	19.9 µM (inactive)	29.9 µM (inactive)	16.2 µM (inactive)	11 µM (inactive)					22.2 µM (inactive)		4.68 µM (inactive)	40.4 µM (inactive)	46.7 µM (inactive)
CSCC[C@@H](NC(=O)[C@H](CC(C)C)NC(=O)C(Cc1cnc[nH]1)NC(=O)CNC(=O)[C@@H](NC(=O)[C@H](C)NC(=O)[C@H](Cc1cn(C=O)c2ccccc12)NC(=O)[C@H](CCC(N)=O)NC(=O)[C@@H](N)CC(N)=O)C(C)C)C(N)=O (stereo not given in full)	> 100 µM (inactive)	> 100 µM (inactive)	> 100 µM (inactive)	> 100 µM (inactive)	> 100 µM (inactive)	> 100 µM (inactive)	> 100 µM (inactive)	> 100 µM (inactive)	> 100 µM (inactive)	> 100 µM (inactive)	> 100 µM (inactive)	> 100 µM (inactive)		> 100 µM (inactive)		> 100 µM (inactive)	> 100 µM (inactive)	> 100 µM (inactive)		> 100 µM (inactive)
COc1ccccc1-c1cc(O)c2cc(C)cnc2n1	80.5 µM (inactive)	24.9 µM (inactive)	24.7 µM (inactive)	66.4 µM (inactive)	71.9 µM (inactive)	5.89 µM (inactive)	17.2 µM (inactive)	47.9 µM (inactive)	42.9 µM (inactive)	38.5 µM (inactive)			19.3 µM (inactive)	14.8 µM (inactive)	36.8 µM (inactive)		51.6 µM (inactive)	17.2 µM (inactive)	37.9 µM (inactive)	62.1 µM (inactive)
